Laboratory results from patent US10413555B2, “Treatment of skin atrophy with a combination of triiodothyroacetic acid (TRIAC) and dehydroepiandrosterone (DHEA)” (TROPHEA DEVELOPMENT AB, priority 2014, dated 2019).
Where two headings read alike, the source gives them in different places.

Columns and labels:
[1] = topical corticosteroid, Group III; cited from earlier work
post-menopausal women = conditions: DHEA 1% formulation, topical, facial and hand skin, 4 months, versus vehicle; cited from earlier work
elderly people = conditions: oral route; cited from earlier work
Procollagen I (PINP) = assay: PINP in suction blister fluid from skin pretreated with betamethasone valerate, then treated with test formulations; format: in vivo, human; conditions: suction blister fluid after 14 days treatment
From the text: Six healthy male volunteers aged 40-65 years. Criteria for exclusion are: treatment with systemic or topical glucocorticoids, ongoing serious infections, immunosuppression.
TRIAC and DHEA were obtained from Sigma. They were mixed with Essex cream (Merck) to obtain 4 different study formulations: • A. 0.03% TRIAC in Essex cream • B. 0.03% TRIAC and 2% DHEA in Essex cream • C. Essex cream alone. • D. 2% DHEA in Essex cream
A proof-of-concept, single blinded, open prospective study comparing, TRIAC, DHEA and the combination of the two as compared with non-active treatment on short-term glucocorticoid-induced skin atrophy.
The test area was normal looking abdominal skin in 6 male volunteers. Four different skin areas of 10×10 cm were marked with a permanent marker pen.
All areas were pretreated twice daily with betametasone valerate (Betnovate, GSK) 0.5 gr twice daily for 21 days. Then each test area was treated, with 0.5 gr twice daily of one of the test formulations, for 14 days.
Suction blisters were induced with a disposable device (Dermovac, Ventipress, Lappeeranta, Finland) placed on the test areas and connected to a vacuum pump with a vacuum of approximately 60 mm Hg. Each device produces five suction blisters within approximately one hour. The resulting fluid was collected, using a syringe, and then combined and frozen at −70° C. […]

[2] = system: cultured human peripheral lymphocytes; assay: In vitro chromosome aberration assay; format: cell-based
From the text: (§1) The genotoxic potential of TRIAC has been investigated in the Ames' test and in in vitro chromosome aberration assay in cultured human peripheral lymphocytes.

[3] = system: patients with skin atrophy on the dorsum of their hands; conditions: cited from earlier work
procollagen I and III = conditions: cited from earlier work
mice = conditions: cited from earlier work
metabolic effects = conditions: cited from earlier work
psoriasis = conditions: TRIAC 0.1% ointment; cited from earlier work
rats [4] = conditions: rat, in vivo, 2000 mg/kg; cited from earlier work
rats [5] = conditions: cited from earlier work
thyroid hormone levels = conditions: cited from earlier work
Ames' test = format: cell-based
From the text: as §1

CCCCC(=O)O[C@]1(C(=O)CO)[C@@H](C)C[C@H]2[C@@H]3CCC4=CC(=O)C=C[C@]4(C)[C@@]3(F)[C@@H](O)C[C@@]21C [Betamethasone valerate]
potency relative to hydrocortisone [1]: 50-100 times

C[C@]12CC[C@H](O)CC1=CC[C@@H]1[C@@H]2CC[C@]2(C)C(=O)CC[C@@H]12 [DHEA, dehydroepiandrosterone]
effect on skin aging features (post-menopausal women): improved skin brightness and counteract papery appearance of the skin and epidermal atrophy | effect on skin conditions (elderly people): positive effect | PINP concentration, comparison between treatments (Procollagen I (PINP)): only slightly better than treatment with placebo

O=C(O)Cc1cc(I)c(Oc2ccc(O)c(I)c2)c(I)c1 [TRIAC, triiodothyroacetic acid]
genotoxic potential [2]: no genotoxic potential | skin thickness in epidermis and dermis ([3]; TRIAC 0.1% cream, after 8 weeks of treatment): significantly higher | effect on glucocorticoid-induced skin atrophy ([3]; topical, patients treated with potent topical corticosteroids for hand eczema): appears to reverse glucocorticoid-induced skin atrophy | procollagen I and III compared to placebo (procollagen I and III; TRIAC 0.03% and 0.1% cream, both groups, 7 days after start of treatment, pre-treatment with topical betamethasone 17-valerate): statistically significant increase | PINP synthesis compared to placebo (procollagen I and III; TRIAC 0.03% cream, healthy volunteers, skin pretreated with betamethasone valerate): significantly more effective | skin thickness in mice pretreated with betamethasone valerate (mice; TRIAC alone, 0.03%): could restore skin thickness | effect on skin atrophy induced by potent topical glucocorticoids (mice; topical administration, mice): prevents skin atrophy | skin thickness of normal skin (mice; topical, mice): increase skin thickness | side effects (mice; topical, compared with vitamin A and D derivatives): no side effects were seen | dose necessary to obtain similar metabolic effects, relative to T3 (metabolic effects; human, in vivo): greater than 15 times | dose necessary to obtain similar metabolic effects, relative to T4 (metabolic effects; human, in vivo): > 10 times | tachycardia compared with T4 or T3 (metabolic effects; human, in vivo): does not evoke tachycardia as effectively as T4 or T3 | tolerability (metabolic effects; oral administration, daily doses of 3.4 mg, up to 3 weeks): well tolerated | effect on psoriasis in comparison with placebo (psoriasis): no statistically significant effects | safety of topical treatment (psoriasis): safe | general toxicity and local irritation (rats [4]): neither any clinical signs of general toxicity nor any local irritation | lowest lethal dose (rats [5]; rat, in vivo, ip): 100 mg/kg | LD50 (rats [5]; single dose, intraperitoneal, female rats): 295 mg/kg | LD50 (rats [5]; single dose, intraperitoneal, male rats): 143 mg/kg | no observed effect level (NOEL) (rats [5]; single dose, intraperitoneal, suspended in 0.8% hydroxyl propyl methylcellulose gel, rats): 46.4 mg/kg | effects on thyroid hormone levels (thyroid hormone levels; all 3 clinical studies, after 8 weeks treatment): no significant effects | other blood analysis (thyroid hormone levels; clinical studies (15-16)): normal levels | genotoxic potential (Ames' test): no genotoxic potential
